Measurements published in US4460594A, “Bicyclo-hetero-alkylene-1-piperidines, pharmaceutical compositions thereof and methods of use thereof” (Beecham Group p.l.c., priority 1981, dated 1984).
pKi: −log10 of the molar value. Structures can show the parent of a compound that is named as a salt.

Tests used:
[1] = test system: presynaptic dopaminergic autoreceptors; test: Inhibition of Spontaneous Climbing in the Mouse; type: in vivo; settings: 10 minute period commencing 3 minutes after administration; for ID50, Inhibition of Spontaneous Climbing Behaviour in Mice: subcutaneous; for % Inhibition of Spontaneous Climbing Behaviour in Mice: at 0.2 mg/kg subcutaneous
Protocol: It is believed that this inhibitory effect is mediated by stimultion of presynaptic dopaminergic autoreceptors, i.e. receptors whose stimulation results in inhibition of dopamine synthesis and electrical activity of dopamine neurones. Spontaneous climbing behavior was assessed by the method of M. P. Martres et al., Brain Res. 136, 319 (1977).
This involves the monitoring of the frequency of climbing behaviour of mice in inverted food hoppers over a 10 minute period commencing 3 minutes after subcutaneous administration of compound.
A climb is defined as the mouse having all four feet off the ground. Experiments are carried out with a minimum of 5 groups of 10 mice, one group acting as control. […] The ID50 value is calculated using the Litchfield and Wilcoxon technique and is defined as the concentration of drug which would be expected to reduce spontaneous climbing of a group of mice by 50%.

α-Adrenoceptor [2] = test: displacement of 3H-Prazosin, α-adrenoceptor labelling; type: binding
Source text: (§1) α-Adrenoceptor and dopamine receptors were labelled using methods similar to those previously reported [see S. Lazareno and S. R. Nahorski, Communication presented to Brit. Pharm. Soc., Bradford, 74 (1981), and P. Greengrass and R. Bremer, Eur. J. Pharmacol 55, 323 (1979)].

α-Adrenoceptor [3] = test: displacement of 3H-Yohimbine, α-adrenoceptor labelling; type: binding
Source text: as §1

dopamine receptor [4] = target: T1, dopamine receptor (Rattus norvegicus, UniProt P61169); test: displacement of 3H-Domperidone, dopamine receptor labelling; type: binding
T1 construct: from tissue
T1 sequence (P61169 whole entry): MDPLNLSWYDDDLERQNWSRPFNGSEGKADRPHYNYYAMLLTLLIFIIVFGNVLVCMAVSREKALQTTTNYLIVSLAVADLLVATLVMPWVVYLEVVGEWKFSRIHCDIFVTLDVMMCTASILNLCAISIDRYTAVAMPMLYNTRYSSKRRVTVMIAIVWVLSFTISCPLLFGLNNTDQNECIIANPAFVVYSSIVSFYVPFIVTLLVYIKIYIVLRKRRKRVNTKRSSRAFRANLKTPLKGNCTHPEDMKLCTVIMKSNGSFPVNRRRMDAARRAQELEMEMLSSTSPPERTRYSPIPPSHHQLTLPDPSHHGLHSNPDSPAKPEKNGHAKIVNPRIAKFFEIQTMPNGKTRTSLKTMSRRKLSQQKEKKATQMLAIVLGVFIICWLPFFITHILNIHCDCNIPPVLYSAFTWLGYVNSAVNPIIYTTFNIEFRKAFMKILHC
Source text: as §1

dopamine receptor [5] = target: T1, dopamine receptor; test: displacement of 3H-Spiperone, dopamine receptor labelling; type: binding
Source text: as §1

[6] = read-out: INHIBITION CONSTANT Ki, 3H-Prazosin
[7] = read-out: INHIBITION CONSTANT Ki, 3H-Yohimbine
[8] = 3H-Domperidone, read-out: INHIBITION CONSTANT Ki, 3H-Domperidone
[9] = 3H-Spiperone, read-out: INHIBITION CONSTANT Ki, 3H-Spiperone

SMILES: Oc1cccc(C2CCCN(CCc3cc4ccccc4o3)C2)c1 (stereo not drawn) [Compound 13, 3-(1-[2-(2-Benzofuryl)ethyl]-3-piperidyl)phenol hydrobromide hemihydrate]
- ID50, Inhibition of Spontaneous Climbing Behaviour in Mice [1]: 0.29 mg/kg

SMILES: Oc1cccc(C2CCCN(CCc3c[nH]c4ccccc34)C2)c1 (stereo not drawn) [Compound 34, 3-(1-[2-(1H-3-Indolyl)ethyl]-3-piperidyl)phenol]
- % Inhibition of Spontaneous Climbing Behaviour in Mice [1]: 52%

SMILES: NC1CCc2c(ccc(O)c2O)C1 (stereo not drawn) [A-5,6-DTN]
- pKi (α-Adrenoceptor [2]; [6]): 4.80
- pKi (α-Adrenoceptor [3]; [7]): 6.16
- pKi (dopamine receptor [4]; [8]): 6.62
- pKi (dopamine receptor [5]; [9]): 6.28

SMILES: NC1CCc2cc(O)c(O)cc2C1 (stereo not drawn) [A-6,7-DTN]
- pKi (α-Adrenoceptor [2]; read-out: […] Ki, 3H-Prazosin): 5.00
- pKi (α-Adrenoceptor [3]; read-out: […] Ki, 3H-Yohimbine): 6.25
- pKi (dopamine receptor [4]): 7.92
- pKi (dopamine receptor [5]): 6.89

SMILES: Br.Oc1cccc(C2CCCN(Cc3cc4ccccc4o3)C2)c1 (stereo not drawn) [Compound 14, 3-[1-(2-benzofurylmethyl)-3-piperidyl]phenol hydrobromide]
- ID50, Inhibition of Spontaneous Climbing Behaviour in Mice [1]: 1.7 mg/kg

SMILES: Br.Oc1cccc(C2CCCN(Cc3c(Br)oc4ccccc34)C2)c1 (stereo not drawn) [Compound 11, 3-[1-(2-bromo-3-benzofurylmethyl)-3-piperidyl]phenol hydrobromide]
- % Inhibition of Spontaneous Climbing Behaviour in Mice [1]: 24%

SMILES: Oc1cccc(C2CCCN(Cc3coc4ccccc34)C2)c1 (stereo not drawn) [Compound 12, 3-[1-(3-Benzofurylmethyl)-3-piperidyl]phenol hydrobromide hemihydrate]
- % Inhibition of Spontaneous Climbing Behaviour in Mice [1]: 23%

SMILES: Oc1cccc(C2CCCN(CC3Cc4ccccc4O3)C2)c1 (stereo not drawn) [Compound 30, 3-(1-[(2,3-Dihydro-2-benzofuranyl)methyl]-3-piperidinylphenol) hydrobromide hydrate]
- pKi (α-Adrenoceptor [2]; [6]): 6.68
- pKi (α-Adrenoceptor [3]; [7]): 7.89
- pKi (dopamine receptor [4]; [8]): 7.32
- pKi (dopamine receptor [5]; [9]): 6.70
- ID50, Inhibition of Spontaneous Climbing Behaviour in Mice [1]: 0.09 mg/kg
